According to BindingDB's records for doi:10.1021/jm000013n (The University of Queensland, 2000):

Experiment: Inhibition of virion associated RT activity relative to untreated, infected control in cord blood mononuclear cells (CBMC) infected with HIV -1 TC354 strain

Row | SMILES | IC50 [µM]
1 | CC[C@@H](C)[C@@H]1NC(=O)[C@@H](NC[C@@H](O)[C@H](Cc2ccccc2)NC(=O)[C@@H](NC(=O)c2ccc3ccccc3n2)C(C)C)Cc2ccc(cc2)OCCCNC1=O | 0.095
2 | O=C1N(Cc2ccc(CO)cc2)[C@H](Cc2ccccc2)[C@H](O)[C@@H](O)[C@@H](Cc2ccccc2)N1Cc1ccc(CO)cc1 [(4R,5S,6S,7R)-4,7-dibenzyl-5,6-dihydroxy-1,3-bis({[4-(hydroxymethyl)phenyl]methyl})-1,3-diazepan-2-one] | 0.11
